Results: US5719130A, “Anthracycline derivative having a trifluoromethylated sugar” (Zaidan Hojin Biseibutsu Kagaku Kenkyu Kai, priority 1994, dated 1998)
Values after ≈ are worked out from the molar mass of the structure shown.

What was measured:
P388 cells = test: In vitro inhibition of growth of P388 cells, 72 hours (Test Example 3); assay type: cell-based, mouse; settings: Mus musculus, P388, 72 h
Method: (§1) Furthermore, in order to estimate the antitumor activities of Compound (a) and Compound (b) of this invention represented by the general formula (I), as well as the adriamycinone derivative represented by the formula (II) (namely, Compound (c) of this invention), some "in vitro" tests for inhibiting proliferation of cancer cells were conducted as shown below.
(§2) The above-mentioned Compound (a), Compound (b) or Compound (c) according to this invention were added at varying concentrations to mouse leukemia, P388 cells or adriamycin-resistant P388 cells (P388/ADR) which had been incubated in test tubes containing an appropriate culture medium. The incubation of the tumor cells were then continued for 72 hours from the addition of the test compound, and determination was made to evaluate such concentrations of the test compound which could inhibit the growth of the leukemia cells by 50% (namely, IC50' ng/ml). FT-DM, FT-ADM and adriamycin (as the hydrochloride) were used as comparative compounds and were tested in the same manner as above.

[1] = tested on: adriamycin-resistant P388 cells (P388/ADR); test: In vitro inhibition of growth of adriamycin-resistant P388 cells, 72 hours (Test Example 3); assay type: cell-based, mouse; settings: Mus musculus; P388/ADR, 72 hours
Method: as §1, §2

Leukemia L-1210 cells [2] = test: Antitumor activity against leukemia L-1210 in CDF1 mice, 60-day observation (Test Example 1); assay type: in vivo, mouse; settings: for % Increase in life-span (T/C, %): 9 days, 60 d observation, '>' = at least one of four mice survived 60 days
Method: Thus, to evaluate the antitumor effects of the new compounds of this invention against experimental tumors in animals, CDF1 mice (four mice per group) were intraperitoneally transplanted with cells of Leukemia L-1210 at an amount of 1×10^5 cells/mouse. Since an elapsed time of 24 hours from the transplantation of the leukemia cells, a test compound according to this invention was administered intraperitoneally to the mice under test for 9 consecutive days once per day. […] While, mice of the control group (the untreated group) were administered with only physiological saline after the transplantation of the L-1210 cells. During the observation period, the numbers of the surviving mice in the treated group and in the control group were counted, and the mean survival days of mice in the treated group and in the control group were then calculated. From the mean survival day (C) of the untreated mice of the control group and the mean survival day (T) of the treated mice of the treated group, there were evaluated percentages (%) of the increase in the life-span of the treated mice, as T/C %. For a comparison purpose, 7-O-(2,6-dideoxy-2-fluoro-α-L-talopyranosyl)daunomycinone (abbreviation: FT-DM); 7-O-(2,6-dideoxy-2-fluoro-α-L-talopyranosyl)adriamycinone (abbreviation: FT-ADM); daunomycin and adriamycin were also tested in the same manner as above. Incidentally, the mean survival day of mice of the control group (the untreated group) was amounting to 8 to 9 days, and the mean survival day of mice of the comparative groups having received the administration of adriamycin was varying dependently on the dosage of adriamycin.

Leukemia L-1210 cells [3] = test: Antitumor activity against leukemia L-1210 in CDF1 mice, 30-day observation (Test Example 2); assay type: in vivo, mouse; settings: 9 days, 30 d observation, '>' = at least one of four mice survived 30 days
Method: Since an elapsed time of 24 hours from the transplantation of the leukemia cells, Compound (c) of this invention was administered intraperitoneally to the mice under test for 9 consecutive days once per day. […] While, mice of the control group (the untreated group) were administered with only physiological saline after the transplantation of the L-1210 cells. During the observation period, the numbers of the surviving mice in the treated group and the control group were counted, and the mean survival days of mice in the treated group and in the control group were then calculated. From the mean survival day (C) of the untreated mice of the control group and the mean survival day (T) of the treated mice of the treated group, there were evaluated percentages (%) of the increase in the life-span of the treated mice as T/C %. For a comparison purpose, adriamycin was also tested in the same manner as above.

[4] = clinical treatments, patients; cited from earlier work

## COc1cccc2c1C(=O)c1c(O)c3c(c(O)c1C2=O)C[C@@](O)(C(=O)CO)C[C@@H]3O[C@H]1C[C@H](N)[C@H](O)[C@H](C)O1 [Adriamycin, adriamycin]
P388 cells
  IC50: 0.017 µg/mL (≈ 0.0313 µM)
[1]
  IC50: 0.51 µg/mL (≈ 0.938 µM)
Leukemia L-1210 cells [2]; 0.15 mg/kg/day i.p.
  % Increase in life-span (T/C, %): 140%
Leukemia L-1210 cells [2]; 0.3 mg/kg/day i.p.
  % Increase in life-span (T/C, %): 132%
Leukemia L-1210 cells [2]; 0.6 mg/kg/day i.p.
  % Increase in life-span (T/C, %): 208%
Leukemia L-1210 cells [2]; 1.25 mg/kg/day i.p.
  % Increase in life-span (T/C, %): 330%
Leukemia L-1210 cells [2]; 2.5 mg/kg/day i.p.
  % Increase in life-span (T/C, %): 273%
Leukemia L-1210 cells [2]; 2.5 mg/kg/day to 5 mg/kg/day, about / approximately at maximum
  percentages (%) of increase in life-span (T/C, %): approximately 330%
Leukemia L-1210 cells [2]; 5 mg/kg/day i.p.
  % Increase in life-span (T/C, %): 177%
Leukemia L-1210 cells [2]; 2.5 to 5 mg/kg/day for daunomycin, adriamycin, 0.3 to 1.25 mg/kg/day for Compound (b), low dosages for formula (I)
  development of toxicity (in words): accompanied by development of toxicity
Leukemia L-1210 cells [3]; 0.15 mg/kg/day i.p.
  % Increase in life-span (T/C, %): 140%
Leukemia L-1210 cells [3]; 0.3 mg/kg/day i.p.
  % Increase in life-span (T/C, %): 132%
Leukemia L-1210 cells [3]; 0.6 mg/kg/day i.p.
  % Increase in life-span (T/C, %): 208%
Leukemia L-1210 cells [3]; 1.25 mg/kg/day i.p.
  % Increase in life-span (T/C, %): 330%
Leukemia L-1210 cells [3]; 2.5 mg/kg/day i.p.
  % Increase in life-span (T/C, %): 273%
Leukemia L-1210 cells [3]; 5 mg/kg/day i.p.
  % Increase in life-span (T/C, %): 177%
[4]
  serious side-effects (in words): serious side-effects such as leukocytopenia, alopecia, myocardiopathy and others
